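Grown in 96-well plates, cells were treated for 48 hours with each compound at five concentrations. Insufficient inhibition: endpoint recorded as highest concentration tested. Abbreviation: GI50, concentration required for 50% inhibition of growth. TGI is the concentration that stops growth completely.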
Experiments:
Experiment in all cases: NCI-60 cell line screen, 48 h
[1] = tested on: NCI-H23 lung
[2] = tested on: SF-268 CNS
[3] = tested on: ACHN renal
[4] = tested on: HL-60(TB) leukemia
[5] = tested on: LOX IMVI melanoma
[6] = tested on: NCI/ADR-RES ovarian
[7] = tested on: SNB-75 CNS
[8] = tested on: COLO 205 colon
[9] = tested on: BT-549 breast

Nc1ccc(Nc2cc(=O)[nH]c(=O)[nH]2)cc1
TGI [1]: > 100 µM
TGI [2]: > 100 µM
TGI [3]: > 100 µM
TGI [4]: > 100 µM
TGI [5]: > 100 µM
TGI [6]: > 100 µM

COC(=O)c1c(C)cccc1C1CN=NC12Cc1ccc(C)c(C)c1C2=O (configuration not stated)
TGI [7]: > 100 µM
TGI [1]: > 100 µM
TGI [2]: > 100 µM
TGI [3]: > 100 µM
TGI [4]: 28.6 µM
TGI [5]: > 100 µM
TGI [6]: > 100 µM

CC(C)=CCOc1cc(NC(=S)c2ccsc2C)ccc1Cl
TGI [8]: > 100 µM
TGI [7]: 66.4 µM
TGI [1]: > 100 µM
TGI [2]: > 100 µM
TGI [9]: > 100 µM
TGI [3]: > 100 µM
TGI [4]: > 100 µM
TGI [5]: > 100 µM
TGI [6]: > 100 µM

C=C[C@@]1(O)CCCC[C@@H]1CC(Sc1ccccc1)Sc1ccccc1
TGI [8]: 32.3 µM
TGI [7]: 27.8 µM
TGI [1]: 32.7 µM
TGI [2]: 29 µM
TGI [3]: > 100 µM
TGI [4]: > 100 µM
TGI [5]: 34.5 µM
TGI [6]: 39.7 µM

Cc1ccc(-c2nnc(CCCCCCCCc3nnc(-c4ccc(C)cc4O)n3N)n2N)c(O)c1
TGI [8]: > 100 µM
TGI [7]: > 100 µM
TGI [1]: > 100 µM
TGI [2]: > 100 µM
TGI [3]: > 100 µM
TGI [5]: > 100 µM
TGI [6]: > 100 µM

Cc1nc2n(c1/C=C1/C(=O)Nc3ccccc31)CCS2
TGI [8]: 47.6 µM
TGI [7]: 87 µM
TGI [1]: > 100 µM
TGI [2]: > 100 µM
TGI [9]: > 100 µM
TGI [3]: > 100 µM
TGI [4]: > 100 µM
TGI [5]: > 100 µM
TGI [6]: > 100 µM

C[N+](C)(C)C=Nc1cccc2c1CCCC2
TGI [8]: > 100 µM
TGI [7]: > 100 µM
TGI [1]: > 100 µM
TGI [2]: > 100 µM
TGI [9]: > 100 µM
TGI [3]: > 100 µM
TGI [4]: > 100 µM
TGI [5]: > 100 µM
TGI [6]: > 100 µM

Cc1ccc(-n2cc(-c3ccc(Cl)cc3)c3c(NN)ncnc32)cc1
TGI [8]: 11.2 µM
TGI [7]: 7.6 µM
TGI [1]: 12.5 µM
TGI [2]: 17.8 µM
TGI [3]: 14.3 µM
TGI [4]: 4.99 µM
TGI [5]: 19.7 µM
TGI [6]: 15.3 µM

O=[N+]([O-])c1ccc2oc(=Nc3ccccc3)c(Nc3ccccc3)nc2c1
TGI [8]: > 100 µM
TGI [7]: 79.6 µM
TGI [1]: > 100 µM
TGI [2]: > 100 µM
TGI [3]: > 100 µM
TGI [4]: > 100 µM
TGI [5]: > 100 µM
TGI [6]: > 100 µM

CC(C)(O)C1CC[C@]2(C)[C@H]3CC[C@@H]4[C@@]5(C)CCCC(C)(C)[C@@H]5CC[C@@]4(C)[C@]3(C)CC[C@@H]12 (some centres not stated)
TGI [8]: > 100 µM
TGI [1]: > 100 µM
TGI [2]: > 100 µM
TGI [9]: > 100 µM
TGI [3]: > 100 µM
TGI [4]: > 100 µM
TGI [5]: > 100 µM
TGI [6]: > 100 µM

CC(=O)NC1=C(NCCCl)C(=O)c2ccccc2C1=O
TGI [8]: > 100 µM
TGI [7]: > 100 µM
TGI [1]: 80.1 µM
TGI [2]: > 100 µM
TGI [9]: > 100 µM
TGI [3]: > 100 µM
TGI [6]: 74 µM

Cc1ccc(S(=O)(=O)[C@@H](Cl)[C@H]2N=C(Cl)NN=C2c2ccccc2)cc1
TGI [8]: 75 µM
TGI [7]: 97.4 µM
TGI [1]: 63.1 µM
TGI [2]: 38.8 µM
TGI [9]: 59 µM
TGI [3]: > 100 µM
TGI [5]: 51.8 µM
TGI [6]: 50.8 µM

O=S(=O)(c1ccc(-c2nnc(-c3ccc(F)cc3)o2)cc1)c1ccc(-c2nnc(-c3ccc(F)cc3)o2)cc1
TGI [8]: > 100 µM
TGI [7]: 26 µM
TGI [1]: > 100 µM
TGI [2]: > 100 µM
TGI [9]: > 100 µM
TGI [3]: 46.8 µM
TGI [4]: > 100 µM
TGI [5]: > 100 µM
TGI [6]: > 100 µM

COc1ccc(C(Cc2ccccc2)C2NC(=S)NC2=O)cc1 (configuration not stated)
TGI [8]: > 25 µM
TGI [7]: > 25 µM
TGI [1]: > 25 µM
TGI [2]: > 25 µM
TGI [3]: > 25 µM
TGI [4]: > 25 µM
TGI [5]: > 25 µM
TGI [6]: > 25 µM

COc1ccccc1N=Nc1c(O)c(S(=O)(=O)O)cc2cc(S(=O)(=O)O)ccc12
TGI [8]: > 100 µM
TGI [7]: > 100 µM
TGI [1]: > 100 µM
TGI [2]: > 100 µM
TGI [9]: > 100 µM
TGI [3]: > 100 µM
TGI [5]: > 100 µM
TGI [6]: > 100 µM

Cn1c([C@H](C#N)C(=O)c2cc(O)ccc2[N+](=O)[O-])nc2ccccc21
TGI [8]: > 100 µM
TGI [7]: > 100 µM
TGI [1]: > 100 µM
TGI [2]: > 100 µM
TGI [9]: > 100 µM
TGI [3]: > 100 µM
TGI [4]: > 100 µM
TGI [5]: > 100 µM
TGI [6]: > 100 µM

C=C(C)C1CC/C(C)=C/CC[C@]2(C)O[C@@H]2CCC2=CC1OC2=O (some centres not stated)
GI50 [8]: > 100 µM
TGI [8]: > 100 µM
GI50 [1]: 36.8 µM
TGI [1]: > 100 µM
GI50 [2]: > 100 µM
TGI [2]: > 100 µM
GI50 [5]: 15.1 µM
TGI [5]: 48.2 µM
GI50 [6]: > 100 µM
TGI [6]: > 100 µM

CC(C)(C)CC(C)(C)NC(=S)NO
TGI [8]: > 100 µM
TGI [7]: > 100 µM
TGI [1]: > 100 µM
TGI [2]: > 100 µM
TGI [3]: > 100 µM
TGI [4]: > 100 µM
TGI [5]: > 100 µM
TGI [6]: > 100 µM

Cc1nnc2n(c1=O)CCN2C
TGI [8]: > 100 µM
TGI [7]: > 100 µM
TGI [1]: > 100 µM
TGI [2]: > 100 µM
TGI [9]: > 100 µM
TGI [3]: > 100 µM
TGI [4]: > 100 µM
TGI [5]: > 100 µM

CCOC(=O)C(NC(=O)CC)(Nc1ccc(S(=O)(=O)Nc2onc(C)c2C)cc1)C(F)(F)F (configuration not stated)
TGI [8]: > 100 µM
TGI [7]: > 100 µM
TGI [1]: > 100 µM
TGI [2]: > 100 µM
TGI [9]: > 100 µM
TGI [3]: > 100 µM
TGI [4]: > 100 µM
TGI [5]: > 100 µM
TGI [6]: > 100 µM

O=S(=O)(O)c1cccc2cccc(N=Nc3c(O)ccc4ccccc34)c12
TGI [8]: > 100 µM
TGI [7]: > 100 µM
TGI [1]: > 100 µM
TGI [2]: > 100 µM
TGI [9]: > 100 µM
TGI [3]: > 100 µM
TGI [4]: > 100 µM
TGI [6]: > 100 µM

CN(C(=O)c1ccc2c(c1)sc1c(=O)n(C)c3ccccc3c12)c1ccccc1
TGI [8]: > 100 µM
TGI [7]: > 100 µM
TGI [1]: > 100 µM
TGI [9]: > 100 µM
TGI [3]: > 100 µM
TGI [4]: > 100 µM
TGI [5]: > 100 µM
TGI [6]: > 100 µM

CC12CCCCC1=[N+]([O-])C(C)(C)N2O (configuration not stated)
TGI [8]: > 100 µM
TGI [1]: > 100 µM
TGI [2]: > 100 µM
TGI [3]: > 100 µM
TGI [5]: > 100 µM
TGI [6]: > 100 µM

Cc1c(OCc2ccccc2)c(=O)ccn1CCc1c[nH]c2ccccc12
TGI [8]: 32.1 µM
TGI [1]: > 100 µM
TGI [2]: 64.1 µM
TGI [9]: > 100 µM
TGI [3]: > 100 µM
TGI [5]: > 100 µM
TGI [6]: > 100 µM

— PubChem BioAssay (NCI)
